Read-outs that look alike come from different tables or passages of the source.

From US11395857B2, “Radiolabeled melanocortin 1 receptor-specific alpha-melanocyte-stimulating hormone analogues for imaging or therapy” (PROVINCIAL HEALTH SERVICES AUTHORITY, priority 2018, dated 2022) come the findings set out here.

A short description of series [1]: In vivo stability in mouse urine at 1 h p.i. (radio-HPLC). Further details: species or system C57BL/6J mice. On the procedure:
All animal experiments were conducted in according to the guidelines established by Canadian Council on Animal Care and approved by Animal Ethics Committee of the University of British Columbia. Mice were housed under pathogen-free conditions and kept on twelve hours light and twelve hours dark cycle in the Animal Research Centre, BC Cancer Research Centre, Vancouver, Canada. C57BL/6J mice were anesthetized by inhalation with 2% isoflurane in 2.0 L/min of oxygen, and approximately 4-6 MBq of [^68Ga]Ga-CCZ01099 or [^68Ga]Ga-CCZ01048 was injected intravenously. The mice were allowed to recover and roam freely in their cages. At 1 h post-injection (p.i.), the mice were euthanized by CO2 inhalation and their urine was collected and analyzed on HPLC for metabolite using the conditions described above. In vivo urine stability of [^68Ga]Ga-CCZ01099 and [^68Ga]Ga-CCZ01048 were 34.0±10.4% and ≥98.0% (n≥3), respectively.
The in vivo stability tests in mouse urine were performed as described in Example 1. […] With systematic reduction in the number of N-methylations for the αMSH analogues, a decrease in in vivo stability was observed.

A short description of series [2]: Biodistribution of 177Lu-labeled αMSH analogues in mice bearing B16F10 mouse melanoma. It is filed as in vivo, C57BL/6J mice. The settings on record: mouse, iv, total radioactivity, C57BL/6J mice, B16F10 melanoma. The method, then: (§1) The B16-F10 mouse melanoma cells were cultured and inoculated in mice as described in Example 1.
(§2) For biodistribution studies, approximately 1-2 MBq of ^177Lu-labeled αMSH analogues via tail vein under anesthesia. At 1, 4, 24, and 120 h p.i., the mice were euthanized by CO2 inhalation. Organs/tissues were harvested and the radioactivity was measured as described in Example 1.

The next series relates to B16F10 mouse melanoma. Described as above. It is filed as in vivo, C57BL/6J mice. The conditions noted are these: C57BL/6J mice, B16F10 melanoma. On the procedure:
as §1, §2

`CCCC[C@H](NC(=O)CN1CCC(NC(=O)CN2CCN(CC(=O)O)CCN(CC(=O)O)CCN(CC(=O)O)CC2)CC1)C(=O)N[C@H]1CC(=O)NCCCC[C@@H](C(N)=O)NC(=O)[C@H](Cc2c[nH]c3ccccc23)NC(=O)[C@H](CCCNC(=N)N)N(C)C(=O)[C@@H](Cc2ccccc2)NC(=O)[C@H](Cc2c[nH]cn2)NC1=O` [[^68Ga]Ga-CCZ01114, metal not drawn]: the “In vivo urine stability, intact tracer” value in series [1] was determined as 41.4 ± 3.9%.

For the compound `CCCC[C@H](NC(=O)CN1CCC(NC(=O)CN2CCN(CC(=O)O)CCN(CC(=O)O)CCN(CC(=O)O)CC2)CC1)C(=O)N[C@H]1CC(=O)NCCCC[C@@H](C(N)=O)NC(=O)[C@H](Cc2c[nH]c3ccccc23)NC(=O)[C@H](CCCNC(=N)N)NC(=O)[C@@H](Cc2ccccc2)NC(=O)[C@H](Cc2c[nH]cn2)NC1=O` [^177Lu-labeled CCZ01048, metal not drawn, reference compound], the tissue uptake at 1 h was 0.16 ± 0.03 %ID/g in series [2] (male, seminal glands, 1 h p.i., read-out: Biodistribution, Seminal glands); 0.27 ± 0.04 %ID/g in series [2] (male, testes, 1 h p.i., read-out: Biodistribution, Testes); 0.38 ± 0.38 %ID/g in series [2] (adrenal glands, 1 h p.i., read-out: Biodistribution, Adrenal glands); 0.19 ± 0.01 %ID/g in series [2] (bone, 1 h p.i., read-out: Biodistribution, Bone); 0.18 ± 0.02 %ID/g in series [2] (heart, 1 h p.i., read-out: Biodistribution, Heart); 0.33 ± 0.06 %ID/g in series [2] (intestine, 1 h p.i., read-out: Biodistribution, Intestine). The tissue uptake at 1 h in series [2] (kidneys, 1 h p.i., read-out: Biodistribution, Kidneys) came out at 5.36 ± 0.32 %ID/g; in series [2] (liver, 1 h p.i., read-out: Biodistribution, Liver) it was 0.54 ± 0.08 %ID/g; in series [2] (lungs, 1 h p.i., read-out: Biodistribution, Lungs), 0.73 ± 0.4 %ID/g; in series [2] (spleen, 1 h p.i., read-out: Biodistribution, Spleen), 0.29 ± 0.02 %ID/g; in series [2] (stomach, 1 h p.i., read-out: Biodistribution, Stomach) it was 0.59 ± 0.16 %ID/g; in series [2] (thyroid, 1 h p.i., read-out: Biodistribution, Thyroid) it was 2.57 ± 0.62 %ID/g. In addition, the tissue uptake at 4 h was 0.16 ± 0.02 %ID/g in series [2] (male, testes, 4 h p.i., read-out: Biodistribution, Testes); 0.49 ± 0.46 %ID/g in series [2] (intestine, 4 h p.i., read-out: Biodistribution, Intestine); 4.89 ± 1.06 %ID/g in series [2] (kidneys, 4 h p.i., read-out: Biodistribution, Kidneys); 0.48 ± 0.1 %ID/g in series [2] (liver, 4 h p.i., read-out: Biodistribution, Liver); 0.22 ± 0.06 %ID/g in series [2] (spleen, 4 h p.i., read-out: Biodistribution, Spleen); 0.56 ± 0.08 %ID/g in series [2] (stomach, 4 h p.i., read-out: Biodistribution, Stomach). Also, the tissue uptake at 4 h in series [2] (thyroid, 4 h p.i., read-out: Biodistribution, Thyroid) turned out to be 2.16 ± 0.4 %ID/g. Moreover, the tissue uptake at 24 h came out at 0.27 ± 0.23 %ID/g in series [2] (intestine, 24 h p.i., read-out: Biodistribution, Intestine); 1.78 ± 0.32 %ID/g in series [2] (kidneys, 24 h p.i., read-out: Biodistribution, Kidneys); 0.34 ± 0.05 %ID/g in series [2] (liver, 24 h p.i., read-out: Biodistribution, Liver); 1.24 ± 0.32 %ID/g in series [2] (thyroid, 24 h p.i., read-out: Biodistribution, Thyroid). Moreover, the tissue uptake at 120 h in series [2] (kidneys, 120 h p.i., read-out: Biodistribution, Kidneys) came out at 0.36 ± 0.09 %ID/g; in series [2] (liver, 120 h p.i., read-out: Biodistribution, Liver), 0.16 ± 0.04 %ID/g. The tissue to tissue ratio at 1 h in series [2] (tumour/blood, 1 h p.i., read-out: Tumour/blood) was 32.4 ± 7.58; in series [2] (tumour/kidney, 1 h p.i., read-out: Tumour/kidney), 3.04 ± 0.63; in series [2] (tumour/muscle, 1 h p.i., read-out: Tumour/muscle), 126 ± 34.1. In addition, the tissue to tissue ratio at 4 h in series [2] (tumour/blood, 4 h p.i., read-out: Tumour/blood) worked out at 206 ± 73.7; in series [2] (tumour/kidney, 4 h p.i., read-out: Tumour/kidney), 3.65 ± 1.48; in series [2] (tumour/muscle, 4 h p.i., read-out: Tumour/muscle) it was 561 ± 208. In addition, the tissue to tissue ratio at 24 h in series [2] (tumour/blood, 24 h p.i., read-out: Tumour/blood) worked out at 530 ± 45.1; in series [2] (tumour/kidney, 24 h p.i., read-out: Tumour/kidney) it was 2.25 ± 0.15; in series [2] (tumour/muscle, 24 h p.i., read-out: Tumour/muscle), 239 ± 108. Moreover, the tissue to tissue ratio at 120 h stood at 233 ± 57.8 in series [2] (tumour/blood, 120 h p.i., read-out: Tumour/blood); 1.14 ± 0.65 in series [2] (tumour/kidney, 120 h p.i., read-out: Tumour/kidney); 80.9 ± 28.1 in series [2] (tumour/muscle, 120 h p.i., read-out: Tumour/muscle). The excreta dose per gram or mL at 1 h in series [2] (urine, 1 h p.i.) came to 110 ± 81.9 %ID/g. In series [2] (urine, 4 h p.i.), the excreta dose per gram or mL at 4 h amounted to 13.8 ± 10.2 %ID/g. In addition, the excreta dose per gram or mL at 24 h in series [2] (urine, 24 h p.i.) came to 1.99 ± 1.39 %ID/g. Moreover, the excreta dose per gram or mL at 120 h in series [2] (urine, 120 h p.i.) turned out to be 0.22 ± 0.05 %ID/g. Moreover, the “Biodistribution, B16F10 tumour” value is recorded as 16.3 ± 3.75 % ID/g in the series on B16F10 mouse melanoma (1 h p.i.), 16.7 ± 3.86 % ID/g in the series with B16F10 mouse melanoma (4 h p.i.), 4.39 ± 1.36 % ID/g in the series on B16F10 mouse melanoma (24 h p.i.) and 0.41 ± 0.21 % ID/g in the series on B16F10 mouse melanoma (120 h p.i.). Further, the “Biodistribution, Blood” value in the series on B16F10 mouse melanoma (120 h p.i.) is recorded as 0.00 ± 0.00 % ID/g.

With `CCCC[C@H](NC(=O)CN1CCC(NC(=O)CN2CCN(CC(=O)O)CCN(CC(=O)O)CCN(CC(=O)O)CC2)CC1)C(=O)N[C@H]1CC(=O)NCCCC[C@@H](C(N)=O)N(C)C(=O)[C@H](Cc2c[nH]c3ccccc23)N(C)C(=O)[C@H](CCCNC(=N)N)NC(=O)[C@@H](Cc2ccccc2)NC(=O)[C@H](Cc2c[nH]cn2)NC1=O` [[^68Ga]Ga-CCZ01105, metal not drawn], the “In vivo urine stability, intact tracer” value in series [1] was 65.8 ± 2.9%.

`CCCC[C@H](NC(=O)CN1CCC(NC(=O)CN2CCN(CC(=O)O)CCN(CC(=O)O)CCN(CC(=O)O)CC2)CC1)C(=O)N[C@H]1CC(=O)NCCCC[C@@H](C(N)=O)N(C)C(=O)[C@H](Cc2c[nH]c3ccccc23)NC(=O)[C@H](CCCNC(=N)N)N(C)C(=O)[C@@H](Cc2ccccc2)NC(=O)[C@H](Cc2c[nH]cn2)NC1=O` [[^68Ga]Ga-CCZ01106] [metal not drawn]: the “In vivo urine stability, intact tracer” value in series [1] stood at 82.5 ± 1.8%.
